Measurements published in patent US6069156A, “Indole derivatives as cGMP-PDE inhibitors” (Fujisawa Pharmaceutical Co., Ltd., priority 1995, dated 2000).

Legend:
cGMP-PDE = target: T1, cGMP-PDE (Homo sapiens, UniProt O76074); experiment: cGMP-phosphodiesterase (PDE) Assay (human platelets); type: biochemical
T1 construct: cGMP-PDE was separated from other isozymes in human platelets; from tissue; host or cells: human platelets
Method: cGMP-phosphodiesterase (PDE) Assay
cGMP-PDE was separated from other isozymes in human platelets by a modification of the method of Thompson et. al. (Cyclic Nucleotide Phosphodiesterase (PDE), in Methods of Enzymatic analysis, Vol 4, p127-234, 1984). In enzyme inhibition assays, the test compounds were dissolved in 10% DMSO and then diluted with assay buffer (50 mM Tris-HCl, pH 8.0, 0.1 mM dithiothreitol, 2 mM EGTA and 10 u/ml snake venom), at final concentrations ranging from 10^-10 to 10^-6 M. Assays were performed at 0.1 μM substrate ([^3 H]-cGMP) concentration, at 30° C. for 10 minutes using enzyme dilutions which gave 10-20% hydrolysis of substrate. Each assay was initiated by addition of substrate and terminated by addition of anion exchange resin (Dowex 1-X8, 25 μg/mg) followed by centrifugation for 10 minutes (3000 rpm, at 4° C.). Radioactivity of supernatant (^3 H-GMP) was assayed by liquid scintillation counting.

[1] = system: aorta (spirally cut strips); experiment: Smooth Muscle Relaxant: noradrenaline-contracted rat aorta strips; parameters: species or system male Wistar rats; settings: contraction by noradrenaline 1 μM, 37° C.
Method: The aorta were carefully removed from male Wistar rats, cleaned of fat and extraneous tissue. Spirally cut strips of the aorta were placed in a 25 ml organ bath containing Tyrode solution of the following composition (mM); NaCl, 137; KCl, 2.7; CaCl2, 1.8; NaH2 PO4, 0.4; NaHCO3, 12.0; MgSO4, 1.1; glucose, 5.6. The bath was maintained at 37° C. and bubbled with 95% O2 and 5% CO2. The spirally cut strip was stretched to a resting force of 1.0 g, and the isometric contraction was recorded via a force development transducer on an ink writing recorder. Tissues were equilibrated for 60 minutes before contraction was induced by noradrenaline (NA, 1 μM). The test compounds were cumulatively added to organ bath in increasing concentrations ranging from 10^-8 to 10^-5 M, after maximum stable constriction to NA had been achieved.

Cyclosporin nephritis = experiment: Cyclosporin Nephritis Model; type: in vivo, Spontaneously hypertensive rats; settings: 3.2 mg/kg orally twice a day for two weeks; cyclosporin 50 mg/kg daily
Method: Cyclosporin Nephritis Model
Spontaneously hypertensive rats weighing 250-300 g were used. Cyclosporin dissolved in olive-oil containing 5% ethanol was given orally to the animals in a daily dose 50 mg/kg for 2 weeks. After the last dosing of cyclosporin, 24-hours urine was collected for urinalysis. Blood was withdrawn from the abdominal aorta under ether anesthesia 24 hours after the last dosing of cyclosporin, and plasma was separated by centrifugation for biochemical analysis. The animal were bled to death and kidneys were removed for histopathological examination.
The each test compound (3.2 mg/kg) was dissolved in PEG 400 and given orally by the volume of 1 ml/kg twice a day for two weeks.
(§1) Biochemistry and urinalysis: Urine volume, plasma creatinine, urine creatinine, blood urea nitrogen, plasma sodium, urine sodium, plasma potassium and urine potassium, were measured with an autoanalyzer (TBA-20R Toshiba, OM-6020 Daiichi Kagaku).
Histopathology: The kidneys were fixed in phosphate-buffered 10% formalin and its paraffin specimens were prepared and these sections were stained with hematoxylin.

FK506 nephritis = experiment: FK506 Nephritis Model (a); type: in vivo, Spontaneously hypertensive rats; settings: orally twice a day for two weeks; FK506 18 mg/kg daily for 1 week
Method: (a) Spontaneously hypertensive rats weighing 250-300 g were used. FK506 dissolved in olive-oil containing 5% ethanol was given orally to the animals in a daily dose 18 mg/kg for 1 week. After the last dosing of FK506, 24-hours urine was collected for urinalysis. Blood was withdrawn from the abdominal aorta under ether anesthesia 24 hours after the last dosing of FK506, and plasma was separated by centrifugation for biochemical analysis.
The each test compound was dissolved in PEG 400 and given orally by the volume of 1 ml/kg twice a day for two weeks.
as §1

corpora cavernosa [2] = experiment: Effect on Nitroprusside or Ach-induced Relaxation in Isolated Rat Corpora Cavernosa; parameters: species or system Male SD rats; settings: compound at 10^-7 M
Method: (a) Effect of Test Compound on Nitroprusside or Ach-induced Relaxation in Isolated Rat Corpora Cavernosa
Male SD rats were anesthetized with sodium pentobarbital 50 mg/kg intraperitoneally, and the corpora cavernosa was excised. The tunica albuginea was dissected according to the methods described by Italiano et al. (Pharmacological Research, 30, No.4, 1994) and used for in vitro pharmacological study. The erectile tissue strip was placed in a 25 ml organ bath containing Krebs-Ringer solution. The bath was maintained at 37° C. and bubbled with 95% O2 and 5% CO2. The strip was stretched with a resting force of 0.25 g, and isometric contraction were recorded via force development transducer on a recorder.
The strip was equilibrated in the Krebs-Ringer solution for about 60 minutes, and preconstructed by 0.1 mM norepinephrine to ascertain the responsibility of each preparation. The strip was washed several times, and then constricted by 0.1 mM norepinephrine. After getting stable constrictile response to norepinephrine, the first dose-response curve for sodium nitroprusside or Ach was obtained. After washing a few times for 60 minutes, the strip was constricted by norepinephrine again, and the second dose-response curve for sodium nitroprusside or Ach was obtained. The test compound was added 30 minutes before adding norepinephrine.

corpora cavernosa [3] = experiment: Effect on the Relaxation Elicited by Electrical Field Stimulation in rat Corpora Cavernosa; settings: compound at 10^-7 M
Method: (b) Effect of Test Compound on the Relaxation Elicited by Electrical Field Stimulation in rat Corpora Cavernosa.
The rat erectile tissue strip prepared according to the method described by Italiano et al. (Pharmacological Research, 30, No4, 1994) was placed 25 ml organ bath containing Krebs-Ringer solution. The bath was maintained at 37° C. and bubbled with 95% O2 and 5% CO2. The solution also contained atropine (1 μM) and guanethidine (50 μM). The erectile tissue strip was stretched with a resting force of 0.25 g, and isometric contraction were recorded via force development transducer on a recorder. The bipolar platinum electrode connected to the electric stimulator was placed around the strip.
The strip was equilibrated in the Krebs-Ringer solution for about 60 minutes and preconstructed by 0.1 mM norepinephrine to ascertain the responsibility of each preparation. The strip was washed several times, and then constricted by 0.1 mM norepinephrine. After getting stable contractile response to norepinephrine, the first electrical field stimulation (1 to 45 Hz, 20V, 0.5 msec duration, 90 sec interval) was delivered. 30 minutes after adding the tested compound, the second electrical field stimulation was delivered.

[4] = Toxicity by repetitive oral administration; type: in vivo, SD rat; settings: 32 mg/kg once a day orally, 14 consecutive days

CCCc1c(C(=O)C(C)C)c2ccc(C(N)=O)cc2n1Cc1ccccc1Cl [Example 6, 1-(2-chlorobenzyl)-3-isobutyryl-2-propylindole-6-carboxamide]
IC50 (cGMP-PDE): < 0.1 µM
IC50 [1]: < 0.1 µM
recovery in a measure of blood urea nitrogen (Cyclosporin nephritis): more than 50%
recovery in a measure of creatinine clearance (ml/kg/min) (Cyclosporin nephritis): more than 40%
recovery in a measure of creatinine clearance (ml/kg/min) (FK506 nephritis): more than 45%
recovery in urinary sodium excretion (FK506 nephritis): more than 50%
Ach-induced relaxation of corpora cavernosa (corpora cavernosa [2]): potentiated Ach-induced relaxation of corpora cavernosa
nitroprusside-induced relaxation of corpora cavernosa (corpora cavernosa [2]): potentiated nitroprusside-induced relaxation of corpora cavernosa
100 μM Ach-induced relaxant response (corpora cavernosa [2]; contraction by 10^-4 M norepinephrine, control 11.0%): 18.7%
relaxation of corpora cavernosa elicited by electrical field stimulation (corpora cavernosa [3]): potentiated relaxation of corpora cavernosa elicited by electrical field stimulation
Relaxant response elicited by 30 Hz (corpora cavernosa [3]; control 14.3%): 17.1%
death on repetitive oral administration [4]: the dead at dose of 32 mg/kg once a day for 14 consecutive days could not be observed
